Assay results from article PMC2365101, “Anti-Inflammatory Activity of (Polyphenolic)-Sulfonates and Their Sodium Salts in Rodents” (Metal-Based Drugs, 1998).

What was measured:
[1] = target: T1, TNFα high affinity receptors on L929 fibroblasts (Mus musculus, UniProt P25118); assay: 125I-TNFα binding to high affinity receptors on L929 fibroblasts; conditions: 90 min, N=6
T1 construct: host or cells: L929 mouse fibroblasts
T1 sequence (P25118 30-454): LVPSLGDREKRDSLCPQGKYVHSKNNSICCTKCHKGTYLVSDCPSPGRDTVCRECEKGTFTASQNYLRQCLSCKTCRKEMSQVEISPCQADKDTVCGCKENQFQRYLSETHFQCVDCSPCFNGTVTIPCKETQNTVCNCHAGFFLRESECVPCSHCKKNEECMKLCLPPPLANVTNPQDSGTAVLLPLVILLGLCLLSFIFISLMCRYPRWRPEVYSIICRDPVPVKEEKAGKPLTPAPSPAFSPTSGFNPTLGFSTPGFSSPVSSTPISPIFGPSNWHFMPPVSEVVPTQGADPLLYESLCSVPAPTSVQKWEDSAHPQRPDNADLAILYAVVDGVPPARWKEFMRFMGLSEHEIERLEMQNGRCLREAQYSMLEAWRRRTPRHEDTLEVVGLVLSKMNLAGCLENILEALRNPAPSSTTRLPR
Description: Few reports in the literature indicate interaction at these receptor sites other than by peptides or antibodies. […] Blocking these receptors is desirable because the entire inflammation cascade of events is triggered by the early release of TNFa and IL-1. […] Radioisotopes were obtained from New England Nuclear [Dupont, Boston, MA] and substrates and co- factors were obtained from Sigma Chemical Co. [St. Louis, MO]. […] Cell lines were obtained from American Type Culture Collection [Rockville, MD]. In Vivo Tests Anti-inflammatory screen in mice: Male CF male mice weighing 28-32g obtained from Jackson Lab. [Bar Harbor, […]] were used to screen agents at 8 or 16 mg/kg intraperitoneal [I.P.] x 2 administered 3 hr and 30 min prior to administering the irritant, according to Winter's protocol. Evaluation of the induced edema was made by injecting 2% carrageenan in 0.9% saline into the plantar region of the foot. The opposite foot injected with 0.9% isotonic saline was used as a base line. […] Salmonella abortus equi [Lot # 69F4003] […] Drugs from 2 to 16 mg/kg, I.P. were administered 2 hr prior and 2 hr post-injection of the LPS and then subsequently for every 24 hr for the length ofthe animals' lives. Deaths were recorded every 12 hr and continued for 96 hr. […] In vitro TNFa andIL-1 Measurements and Cellular Regulation IC-21 mouse macrophages were maintained in RPMI-1640 + 10% FCS + P/S. After the cells had grown to confluency, E. coli LPS at 10 Ixg/ml was added to the medium. Agents were incubated at 12.5 to 100 µM final concentration for 18 hr. The medium (100 btl) was collected for TNFCt determinations. Interleukin-1 [IL-1] release was determined using P388D1 cells which were maintained in RPMI-1640 + 10% FCS + P/S. The L929 bioassay was used to quantitate the TNF and the IL-1 levels. The L929 mouse fibroblasts were grown in DMEM + 10% FCS + P/S to confluency in 96 well plates and incubated with 100 tl ofmedium from […] or P388D cells after 18 hr. The cells were stained with 0.2% crystal violet in 20% MeOH and read at 580 nm using a Molecular Devices scanner (SOFT-max program). High Affinity Binding to Receptors on L929-106 Cells Two laCi of 125I-TNFct (human recombinant, 30 mCi/tg New England Nuclear) or 125I-IL-1 (70-120[.t Ci/lxg,New England Nuclear) was added to confluency L929 cells for 90 min or 5 hr, […] The cells were washed repeatedly with isotonic saline, pH.7.2 and aliquots counted. Prostaglandin cylcooxygenase activity Mouse J774AI macrophages maintained in Dulbecco's modified Eagle's medium + 15% FCS + P/S. Cells (5 x 106) were incubated with agents (5 to 100 ].tM final concentration) and 3H-arachidonic acid (100 Ci/mol) for 60 min at 37C in a CO2 incubator. The reaction was terminated with 2N HCI, the mixture extracted 2 X with ether, and the organic layer evaporated.

[2] = test system: IL-1 release from P388D1 macrophages; assay: IL-1 release from P388D1 macrophages (L929 bioassay); type: cell-based, mouse; conditions: 5 μM, over 18 hours, N=6

SMILES | TNFα binding, Percent of Control ([1]; 5 μM) | TNFα binding, Percent of Control ([1]; 12.5 μM) | TNFα binding, Percent of Control ([1]; 25 μM) | TNFα binding, Percent of Control ([1]; 50 μM) | IL-1 release, Percent of Control [2]
COc1c2cc(S(=O)(=O)[O-])cc1Cc1cc(S(=O)(=O)[O-])cc(c1OC)Cc1cc(S(=O)(=O)[O-])cc(c1OC)Cc1cc(S(=O)(=O)[O-])cc(c1OC)Cc1cc(S(=O)(=O)[O-])cc(c1OC)Cc1cc(S(=O)(=O)[O-])cc(c1OC)C2.[Na+].[Na+].[Na+].[Na+].[Na+].[Na+] [Compound 6] | 61 + 5% of Control | 39 + 4% of Control | 24 + 3% of Control | 36 + 5% of Control | 13 + 3% of Control
CC(=O)Oc1c2cc(S(=O)(=O)[O-])cc1Cc1cc(S(=O)(=O)[O-])cc(c1OC(C)=O)Cc1cc(S(=O)(=O)[O-])cc(c1OC(C)=O)Cc1cc(S(=O)(=O)[O-])cc(c1OC(C)=O)Cc1cc(S(=O)(=O)[O-])cc(c1OC(C)=O)Cc1cc(S(=O)(=O)[O-])cc(c1OC(C)=O)Cc1cc(S(=O)(=O)[O-])cc(c1OC(C)=O)Cc1cc(S(=O)(=O)[O-])cc(c1OC(C)=O)C2.[Na+].[Na+].[Na+].[Na+].[Na+].[Na+].[Na+].[Na+] [Compound 8] | 59 + 6% of Control | – | 23 + 4% of Control | 37 + 4% of Control | 75+ 5% of Control
